Patent publication US9642831B2, “Substituted chromanes and method of use” (AbbVie S.á.r.l., priority 2014, dated 2017)
pEC50: −log10 of the molar value.

Target: F508delCFTR (Homo sapiens, UniProt P13569, DEL508-508)
Experiment: Cell Surface Expression-Horse Radish Peroxidase (CSE-HRP) assay
Type: cell-based
Set-up: expressed in transfected cells; host or cells: CFBE41o- human lung derived epithelial cell line, doxycycline-inducible
Conditions: CFBE4lo-F508delCFTR-HRP cells; for pEC50: 18-24 hours at 33° C., 8-point curve, highest concentration 20 μM, luminescence readout; for Emax: maximum % activity at any tested concentration, normalized to on-plate positive control (3 μM Example 1)
Procedure, shortened: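 Following 18-24 h compound exposure at 33° C. Expression was doxycycline-induced beforehand. % activity versus DMSO and a 3 μM corrector control gave maximum activity and EC50 from a variable-Hill sigmoidal fit.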

Chain of F508delCFTR (P13569 with tags, fused parts or gaps DEL508-508): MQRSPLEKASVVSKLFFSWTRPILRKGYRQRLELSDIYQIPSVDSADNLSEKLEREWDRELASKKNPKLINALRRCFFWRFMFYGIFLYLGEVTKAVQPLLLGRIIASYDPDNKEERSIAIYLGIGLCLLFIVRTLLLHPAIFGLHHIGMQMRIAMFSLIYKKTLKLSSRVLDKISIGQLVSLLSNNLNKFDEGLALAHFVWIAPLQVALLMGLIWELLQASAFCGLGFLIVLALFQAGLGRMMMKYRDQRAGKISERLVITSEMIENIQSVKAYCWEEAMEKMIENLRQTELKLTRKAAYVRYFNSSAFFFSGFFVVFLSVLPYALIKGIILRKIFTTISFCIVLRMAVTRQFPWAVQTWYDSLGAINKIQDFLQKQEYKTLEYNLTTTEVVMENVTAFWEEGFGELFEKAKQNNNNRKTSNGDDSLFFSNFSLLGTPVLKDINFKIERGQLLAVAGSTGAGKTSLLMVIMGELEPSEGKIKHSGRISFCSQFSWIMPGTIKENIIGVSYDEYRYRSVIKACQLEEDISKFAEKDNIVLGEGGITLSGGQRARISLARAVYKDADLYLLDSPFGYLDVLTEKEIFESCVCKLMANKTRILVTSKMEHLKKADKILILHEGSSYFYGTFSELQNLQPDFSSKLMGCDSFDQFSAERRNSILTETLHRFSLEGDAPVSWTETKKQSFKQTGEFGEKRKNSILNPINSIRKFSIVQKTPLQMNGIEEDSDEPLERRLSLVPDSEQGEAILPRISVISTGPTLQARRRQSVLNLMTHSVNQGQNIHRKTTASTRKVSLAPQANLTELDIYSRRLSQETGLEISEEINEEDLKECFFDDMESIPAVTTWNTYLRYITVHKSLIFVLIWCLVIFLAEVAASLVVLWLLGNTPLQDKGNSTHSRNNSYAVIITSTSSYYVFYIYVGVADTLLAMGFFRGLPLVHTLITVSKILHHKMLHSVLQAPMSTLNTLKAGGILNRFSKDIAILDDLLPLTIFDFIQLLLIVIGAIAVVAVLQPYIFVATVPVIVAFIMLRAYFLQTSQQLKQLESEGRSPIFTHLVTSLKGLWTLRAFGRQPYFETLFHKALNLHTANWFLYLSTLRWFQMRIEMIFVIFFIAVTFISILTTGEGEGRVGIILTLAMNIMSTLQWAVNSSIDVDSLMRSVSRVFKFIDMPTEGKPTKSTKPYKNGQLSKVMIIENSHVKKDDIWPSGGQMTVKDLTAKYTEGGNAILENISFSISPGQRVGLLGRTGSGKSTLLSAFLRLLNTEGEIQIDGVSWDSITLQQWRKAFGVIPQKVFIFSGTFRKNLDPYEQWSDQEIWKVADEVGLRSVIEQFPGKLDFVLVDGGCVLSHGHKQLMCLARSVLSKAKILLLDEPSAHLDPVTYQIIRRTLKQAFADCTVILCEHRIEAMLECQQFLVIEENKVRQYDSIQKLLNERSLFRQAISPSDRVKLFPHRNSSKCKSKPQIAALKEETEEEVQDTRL

pEC50 | Emax [%] | SMILES
5.17 | 108 | C[C@@]1(C(F)(F)F)C[C@@H](NC(=O)C2(c3ccc4c(c3)OC(F)(F)O4)CC2)c2ccccc2O1 [Example 85, 1-(2,2-difluoro-1,3-benzodioxol-5-yl)-N-[(2S,4R)-2-methyl-2-(trifluoromethyl)-3,4-dihydro-2H-chromen-4-yl]cyclopropanecarboxamide]
5.87 | 92 | COC(=O)c1ccc([C@H]2C[C@H](NC(=O)C3(c4ccc5c(c4)OC(F)(F)O5)CC3)c3ccc(OC)cc3O2)nc1 (stereo in doubt) [Example 159, methyl rel-6-[(2R,4S)-4-({[1-(2,2-difluoro-1,3-benzodioxol-5-yl)cyclopropyl]carbonyl}amino)-7-methoxy-3,4-dihydro-2H-chromen-2-yl]pyridine-3-carboxylate]
5.76 | 55 | COc1ccc2c(c1)O[C@@H](C(=O)N1CCC(F)(F)CC1)C[C@H]2NC(=O)C1(c2ccc3c(c2)OC(F)(F)O3)CC1 (racemic) [Example 174, rac-1-(2,2-difluoro-1,3-benzodioxol-5-yl)-N-{(2R,4R)-2-[(4,4-difluoropiperidin-1-yl)carbonyl]-7-methoxy-3,4-dihydro-2H-chromen-4-yl}cyclopropanecarboxamide]
5.64 | 40 | COc1ccc2c(c1)O[C@@H](C(=O)NC(CO)c1ccccc1)C[C@H]2NC(=O)C1(c2ccc3c(c2)OC(F)(F)O3)CC1 (mixture of isomers) [Example 171, rac-(2R,4R)-4-({[1-(2,2-difluoro-1,3-benzodioxol-5-yl)cyclopropyl]carbonyl}amino)-N-(2-hydroxy-1-phenylethyl)-7-methoxy-3,4-dihydro-2H-chromene-2-carboxamide]
6.33 | 68 | COc1ccc2c(c1)O[C@@H](C(=O)N1CCC(F)(F)CC1)C[C@@H]2NC(=O)C1(c2ccc3c(c2)OC(F)(F)O3)CC1 (racemic) [Example 193, rac-1-(2,2-difluoro-1,3-benzodioxol-5-yl)-N-{(2R,4S)-2-[(4,4-difluoropiperidin-1-yl)carbonyl]-7-methoxy-3,4-dihydro-2H-chromen-4-yl}cyclopropanecarboxamide]
5.08 | 63 | CCOC(=O)c1cccc([C@@H]2C[C@H](NC(=O)C3(c4ccc5c(c4)OC(F)(F)O5)CC3)c3ccncc3O2)c1 (stereo in doubt) [Example 24, ethyl rel-3-[(2S,4S)-4-({[1-(2,2-difluoro-1,3-benzodioxol-5-yl)cyclopropyl]carbonyl}amino)-3,4-dihydro-2H-pyrano[2,3-c]pyridin-2-yl]benzoate]
6.55 | 115 | COC(=O)c1ccc([C@H]2C[C@@H](NC(=O)C3(c4ccc5c(c4)OC(F)(F)O5)CC3)c3ccc(OC)cc3O2)cc1 [Example 110, methyl 4-[(2R,4R)-4-({[1-(2,2-difluoro-1,3-benzodioxol-5-yl)cyclopropyl]carbonyl}amino)-7-methoxy-3,4-dihydro-2H-chromen-2-yl]benzoate]
5.35 | 98 | C[C@]1(C(F)F)C[C@@H](NC(=O)C2(c3ccc4c(c3)OC(F)(F)O4)CC2)c2ccccc2O1 [Example 81, 1-(2,2-difluoro-1,3-benzodioxol-5-yl)-N-[(2R,4R)-2-(difluoromethyl)-2-methyl-3,4-dihydro-2H-chromen-4-yl]cyclopropanecarboxamide]
7.30 | 119 | COC(=O)c1ccc([C@H]2C[C@@H](NC(=O)C3(c4ccc5c(c4)OC(F)(F)O5)CC3)c3ccc(OC)cc3O2)c(F)c1 [Example 138, methyl 4-[(2R,4R)-4-({[1-(2,2-difluoro-1,3-benzodioxol-5-yl)cyclopropyl]carbonyl}amino)-7-methoxy-3,4-dihydro-2H-chromen-2-yl]-3-fluorobenzoate]
5.64 | 53 | CCOC(=O)c1csc([C@@H]2C[C@H](NC(=O)C3(c4ccc5c(c4)OC(F)(F)O5)CC3)c3ccccc3O2)n1 (stereo in doubt) [Example 140, ethyl rel-2-[(2S,4S)-4-({[1-(2,2-difluoro-1,3-benzodioxol-5-yl)cyclopropyl]carbonyl}amino)-3,4-dihydro-2H-chromen-2-yl]-1,3-thiazole-4-carboxylate]
5.21 | 64 | CCOC(=O)C1CC(C2CC(NC(=O)C3(c4ccc5c(c4)OC(F)(F)O5)CC3)c3ccccc3O2)C1 (stereo not drawn) [Example 151, ethyl 3-[4-({[1-(2,2-difluoro-1,3-benzodioxol-5-yl)cyclopropyl]carbonyl}amino)-3,4-dihydro-2H-chromen-2-yl]cyclobutanecarboxylate]
5.69 | 132 | COc1ccc2c(c1)OC(c1ccc(Cl)c(Cl)c1)CC2NC(=O)C1(c2ccc3c(c2)OC(F)(F)O3)CC1 (stereo not drawn) [Example 61, N-[2-(3,4-dichlorophenyl)-7-methoxy-3,4-dihydro-2H-chromen-4-yl]-1-(2,2-difluoro-1,3-benzodioxol-5-yl)cyclopropanecarboxamide]
5.51 | 124 | O=C(NC1CCOc2cc(Br)ccc21)C1(c2ccc3c(c2)OC(F)(F)O3)CC1 (stereo not drawn) [Example 56, N-(7-bromo-3,4-dihydro-2H-chromen-4-yl)-1-(2,2-difluoro-1,3-benzodioxol-5-yl)cyclopropanecarboxamide]
5.31 | 38 | COc1ccc2c(c1)O[C@@H](C(=O)N1CCN(CCO)CC1)C[C@H]2NC(=O)C1(c2ccc3c(c2)OC(F)(F)O3)CC1 (racemic) [Example 169, rac-1-(2,2-difluoro-1,3-benzodioxol-5-yl)-N-[(2R,4R)-2-{[4-(2-hydroxyethyl)piperazin-1-yl]carbonyl}-7-methoxy-3,4-dihydro-2H-chromen-4-yl]cyclopropanecarboxamide]
6.10 | 69 | COc1ccc2c(c1)O[C@@H](C(=O)NCCc1cccc(O)c1)C[C@H]2NC(=O)C1(c2ccc3c(c2)OC(F)(F)O3)CC1 (racemic) [Example 179, rac-(2R,4R)-4-({[1-(2,2-difluoro-1,3-benzodioxol-5-yl)cyclopropyl]carbonyl}amino)-N-[2-(3-hydroxyphenyl)ethyl]-7-methoxy-3,4-dihydro-2H-chromene-2-carboxamide]
5.41 | 41 | CCOC(=O)c1cccc([C@H]2C[C@@H](NC(=O)C3(c4ccc5c(c4)OC(F)(F)O5)CC3)c3ccncc3O2)c1 (stereo in doubt) [Example 25, ethyl rel-3-[(2R,4R)-4-({[1-(2,2-difluoro-1,3-benzodioxol-5-yl)cyclopropyl]carbonyl}amino)-3,4-dihydro-2H-pyrano[2,3-c]pyridin-2-yl]benzoate]
5.91 | 67 | COc1ccc2c(c1)O[C@@H](C(=O)N1CCOCC1)C[C@@H]2NC(=O)C1(c2ccc3c(c2)OC(F)(F)O3)CC1 (racemic) [Example 196, rac-1-(2,2-difluoro-1,3-benzodioxol-5-yl)-N-[(2R,4S)-7-methoxy-2-(morpholin-4-ylcarbonyl)-3,4-dihydro-2H-chromen-4-yl]cyclopropanecarboxamide]
5.02 | 30 | COc1ccc2c(c1)O[C@@H](C(=O)N(C)C1COC1)C[C@H]2NC(=O)C1(c2ccc3c(c2)OC(F)(F)O3)CC1 (racemic) [Example 176, rac-(2R,4R)-4-({[1-(2,2-difluoro-1,3-benzodioxol-5-yl)cyclopropyl]carbonyl}amino)-7-methoxy-N-methyl-N-(oxetan-3-yl)-3,4-dihydro-2H-chromene-2-carboxamide]
5.69 | 78 | COC(=O)C12CC([C@H]3C[C@@H](NC(=O)C4(c5ccc6c(c5)OC(F)(F)O6)CC4)c4ccc(OC)cc4O3)(C1)C2 (racemic) [Example 147, methyl rac-3-[(2R,4R)-4-({[1-(2,2-difluoro-1,3-benzodioxol-5-yl)cyclopropyl]carbonyl}amino)-7-methoxy-3,4-dihydro-2H-chromen-2-yl]bicyclo[1.1.1]pentane-1-carboxylate]
6.85 | 131 | COC(=O)c1ccc([C@H]2C[C@@H](NC(=O)C3(c4ccc5c(c4)OC(F)(F)O5)CC3)c3ccc(OC)cc3O2)cc1F [Example 137, methyl 4-[(2R,4R)-4-({[1-(2,2-difluoro-1,3-benzodioxol-5-yl)cyclopropyl]carbonyl}amino)-7-methoxy-3,4-dihydro-2H-chromen-2-yl]-2-fluorobenzoate]
5.40 | 43 | COC(=O)c1ccc2c(c1)[C@H](NC(=O)C1(c3ccc4c(c3)OC(F)(F)O4)CC1)C[C@H](c1cccc(OC)c1)O2 [Example 47, methyl (2R,4R)-4-({[1-(2,2-difluoro-1,3-benzodioxol-5-yl)cyclopropyl]carbonyl}amino)-2-(3-methoxyphenyl)-3,4-dihydro-2H-chromene-6-carboxylate]
≤ 4.70 | 5 | O=C(O)c1ccc2c(c1)OCCC2NC(=O)C1(c2ccc3c(c2)OC(F)(F)O3)CC1 (stereo not drawn) [Example 42, 4-({[1-(2,2-difluoro-1,3-benzodioxol-5-yl)cyclopropyl]carbonyl}amino)-3,4-dihydro-2H-chromene-7-carboxylic acid]
5.26 | 58 | COC(=O)c1cccc([C@H]2C[C@H](NC(=O)C3(c4ccc5c(c4)OC(F)(F)O5)CC3)c3cc(C)ccc3O2)c1 [Example 12, methyl 3-[(2R,4S)-4-({[1-(2,2-difluoro-1,3-benzodioxol-5-yl)cyclopropyl]carbonyl}amino)-6-methyl-3,4-dihydro-2H-chromen-2-yl]benzoate]
5.82 | 97 | CCOC(=O)c1cnc([C@H]2C[C@@H](NC(=O)C3(c4ccc5c(c4)OC(F)(F)O5)CC3)c3ccccc3O2)s1 (stereo in doubt) [Example 135, ethyl rel-2-[(2R,4R)-4-({[1-(2,2-difluoro-1,3-benzodioxol-5-yl)cyclopropyl]carbonyl}amino)-3,4-dihydro-2H-chromen-2-yl]-1,3-thiazole-5-carboxylate]
